Active and inactive are the calls of the source.
Tests used:
Format in all cases: functional, cell-based
Glioma [1] = experiment: Cytotoxicity against human Glioma cells (HF3013) after 72 hrs by CelltiterGlo assay in presence of mTOR inhibitor AZD-8055
Glioma [2] = experiment: Induction of apoptosis in human Glioma cells (HF2476) assessed as increase in cleaved caspase-3 level by western blot analysis
Glioma [3] = experiment: Cytotoxicity against human Glioma cells (HF2476) after 72 hrs by CelltiterGlo assay in presence of mTOR inhibitor AZD-8055
Glioma [4] = experiment: Cytotoxicity against human Glioma cells (HF2476) after 72 hrs by CelltiterGlo assay
Glioma [5] = experiment: Cytotoxicity against human Glioma cells (HF2876) after 72 hrs by CelltiterGlo assay
Glioma [6] = experiment: Cytotoxicity against human Glioma cells (HF3013) after 72 hrs by CelltiterGlo assay
Glioma [7] = experiment: Cytotoxicity against human Glioma cells (HF2303) after 72 hrs by CelltiterGlo assay
Glioma [8] = experiment: Induction of apoptosis in human Glioma cells (HF2876) assessed as increase in cleaved caspase-3 level by western blot analysis
Glioma [9] = experiment: Cytotoxicity against human Glioma cells (HF2876) after 72 hrs by CelltiterGlo assay in presence of mTOR inhibitor AZD-8055
Glioma [10] = experiment: Cytotoxicity against human Glioma cells (HF2303) after 72 hrs by CelltiterGlo assay in presence of mTOR inhibitor AZD-8055
Glioma [11] = experiment: Cytotoxicity against human Glioma cells (HF3013) at 50 uM after 72 hrs by CelltiterGlo assay
Glioma [12] = experiment: Cytotoxicity against human Glioma cells (HF2381) at 50 uM after 72 hrs by CelltiterGlo assay
Glioma [13] = experiment: Cytotoxicity against human Glioma cells (HF2876) at 50 uM after 72 hrs by CelltiterGlo assay
Glioma [14] = experiment: Cytotoxicity against human Glioma cells (HF2790) at 50 uM after 72 hrs by CelltiterGlo assay
Glioma [15] = experiment: Cytotoxicity against human Glioma cells (HF2303) at 50 uM after 72 hrs by CelltiterGlo assay
Glioma [16] = experiment: Cytotoxicity against human Glioma cells (HF2885) at 50 uM after 72 hrs by CelltiterGlo assay
Glioma [17] = experiment: Cytotoxicity against human Glioma cells (HF2476) at 50 uM after 72 hrs by CelltiterGlo assay
Glioma [18] = experiment: Cytotoxicity against human Glioma cells (HF2476) after 72 hrs by CelltiterGlo assay in presence of Bcl2-inhibitor ABT-263
Glioma [19] = experiment: Cytotoxicity against human Glioma cells (HF3013) after 72 hrs by CelltiterGlo assay in presence of Bcl2-inhibitor ABT-263
Glioma [20] = experiment: Decrease in phosphorylated S6 ribosomal protein level at Ser236 residue in human Glioma cells (HF2476) by western blot analysis
Glioma [21] = experiment: Cytotoxicity against human Glioma cells (HF2876) after 72 hrs by CelltiterGlo assay in presence of Bcl2-inhibitor ABT-263
Glioma [22] = experiment: Decrease in phosphorylated S6 ribosomal protein level at Ser235 residue in human Glioma cells (HF2476) by western blot analysis
Glioma [23] = experiment: Cytotoxicity against human Glioma cells (HF2303) after 72 hrs by CelltiterGlo assay in presence of Bcl2-inhibitor ABT-263
Glioma [24] = experiment: Decrease in phosphorylated S6 ribosomal protein level at Ser235 residue in human Glioma cells (HF2876) by western blot analysis
Glioma [25] = experiment: Decrease in phosphorylated S6 ribosomal protein level at Ser236 residue in human Glioma cells (HF2876) by western blot analysis

CC1(C)CCC(c2ccc(Cl)cc2)=C(CN2CCN(c3ccc(C(=O)NS(=O)(=O)c4ccc(N[C@H](CCN5CCOCC5)CSc5ccccc5)c(S(=O)(=O)C(F)(F)F)c4)cc3)CC2)C1
active: Activity (Glioma [1]) | Activity (Glioma [2]) | Activity (Glioma [3]) | Activity (Glioma [8]) | Activity (Glioma [9]) | Activity (Glioma [10])
inactive: Activity (Glioma [4]) | Activity (Glioma [5]) | Activity (Glioma [6]) | Activity (Glioma [7])

Cn1nnc2c(C(N)=O)ncn2c1=O
inactive: Activity (Glioma [11]) | Activity (Glioma [12]) | Activity (Glioma [13]) | Activity (Glioma [14]) | Activity (Glioma [15]) | Activity (Glioma [16]) | Activity (Glioma [17])

COc1ccc(-c2ccc3c(N4CCOC[C@@H]4C)nc(N4CCOC[C@@H]4C)nc3n2)cc1CO
active: Activity (Glioma [18]) | Activity (Glioma [19]) | inhibition (Glioma [20]) | inhibition (Glioma [22]) | inhibition (Glioma [24]) | inhibition (Glioma [25])
inactive: Activity (Glioma [21]) | Activity (Glioma [23])
